Inconclusive results and toxic doses are left out.
System: CD2F1 mice, ip Colon 26 adenocarcinoma, median survival T/C
Assay: NCI In Vivo Anticancer Drug Screen. Data for tumor model Colon 26 Adenocarcinoma (intraperitoneal) in CD2F1 (CDF1) mice
Conditions: endpoint: median survival time, higher = longer survival
Experimental: The antitumor activity of compounds was measured in mice bearing transplantable tumors. Survival or tumor size were measured and the results are expressed as the measurement made in the treated group (T) divided by the measurement made in the vehicle treated control group (C). The tumor model used in this assay is Colon 26 Adenocarcinoma (intraperitoneal) in CD2F1 (CDF1) mice

[1] = dose: 25.0 mg/kg/injection, schedule: Q04DX003 (ip), vehicle: saline with Tween-80
[2] = dose: 50.0 mg/kg/injection, schedule: Q04DX003 (ip), vehicle: saline with Tween-80
[3] = dose: 100.0 mg/kg/injection, schedule: Q04DX003 (ip), vehicle: saline with Tween-80
[4] = dose: 200.0 mg/kg/injection, schedule: Q04DX003 (ip), vehicle: saline with Tween-80
[5] = dose: 400.0 mg/kg/injection, schedule: Q04DX003 (ip), vehicle: saline with Tween-80

Q: For `O=NN(CCCl)C(=O)NC1CCC(=O)NC1=O` (centres undefined), which T/C (dose: 2.8 mg/kg/injection, schedule: Q04DX003 (ip), vehicle: saline with Tween-80) is on record?
A: 243 % of control

Q: What about the T/C (dose: 5.1 mg/kg/injection, schedule: Q07DX002 (oral), vehicle: saline with Tween-80) of the same molecule?
A: 179 % of control

Q: And the T/C (dose: 5.1 mg/kg/injection, schedule: Q07DX003 (oral), vehicle: saline with Tween-80)?
A: 224 % of control

Q: What about the T/C (dose: 5.1 mg/kg/injection, schedule: Q07DX004 (oral), vehicle: saline with Tween-80) of the same molecule?
A: 215 % of control

Q: And the T/C (dose: 5.2 mg/kg/injection, schedule: Q04DX003 (oral), vehicle: saline with Tween-80)?
A: 269 % of control

Q: What about the T/C (dose: 5.6 mg/kg/injection, schedule: Q04DX003 (ip), vehicle: saline with Tween-80) of the same molecule?
A: 269 % of control

Q: What about the T/C (dose: 7.7 mg/kg/injection, schedule: Q01DX001 (oral), vehicle: saline with Tween-80) of the same molecule?
A: 165 % of control

Q: What about the T/C (dose: 7.7 mg/kg/injection, schedule: Q07DX002 (oral), vehicle: saline with Tween-80) of the same molecule?
A: 204 % of control

Q: What about the T/C (dose: 7.7 mg/kg/injection, schedule: Q07DX003 (oral), vehicle: saline with Tween-80) of the same molecule?
A: 250 % of control

Q: And the T/C (dose: 7.7 mg/kg/injection, schedule: Q07DX004 (oral), vehicle: saline with Tween-80)?
A: 265 % of control

Q: What about the T/C (dose: 8.5 mg/kg/injection, schedule: Q04DX003 (oral), vehicle: saline with Tween-80) of the same molecule?
A: 280 % of control

Q: What about the T/C (dose: 11.25 mg/kg/injection, schedule: Q04DX003 (ip), vehicle: saline with Tween-80) of the same molecule?
A: 269 % of control

Q: What about the T/C (dose: 11.5 mg/kg/injection, schedule: Q01DX001 (oral), vehicle: saline with Tween-80) of the same molecule?
A: 189 % of control

Q: What about the T/C (dose: 11.5 mg/kg/injection, schedule: Q07DX002 (oral), vehicle: saline with Tween-80) of the same molecule?
A: 251 % of control

Q: What about the T/C (dose: 11.5 mg/kg/injection, schedule: Q07DX003 (oral), vehicle: saline with Tween-80) of the same molecule?
A: 255 % of control

Q: What about the T/C (dose: 11.5 mg/kg/injection, schedule: Q07DX004 (oral), vehicle: saline with Tween-80) of the same molecule?
A: 369 % of control

Q: And the T/C (dose: 13.6 mg/kg/injection, schedule: Q04DX003 (oral), vehicle: saline with Tween-80)?
A: 307 % of control

Q: What about the T/C (dose: 17.4 mg/kg/injection, schedule: Q01DX001 (oral), vehicle: saline with Tween-80) of the same molecule?
A: 189 % of control

Q: And the T/C (dose: 17.4 mg/kg/injection, schedule: Q07DX002 (oral), vehicle: saline with Tween-80)?
A: 230 % of control

Q: What about the T/C (dose: 17.4 mg/kg/injection, schedule: Q07DX003 (oral), vehicle: saline with Tween-80) of the same molecule?
A: 369 % of control

Q: And the T/C (dose: 17.4 mg/kg/injection, schedule: Q07DX004 (oral), vehicle: saline with Tween-80)?
A: 261 % of control

Q: What about the T/C (dose: 26.0 mg/kg/injection, schedule: Q01DX001 (oral), vehicle: saline with Tween-80) of the same molecule?
A: 210 % of control

Q: What about the T/C (dose: 26.0 mg/kg/injection, schedule: Q07DX002 (oral), vehicle: saline with Tween-80) of the same molecule?
A: 405 % of control

Q: What about the T/C (dose: 26.0 mg/kg/injection, schedule: Q07DX003 (oral), vehicle: saline with Tween-80) of the same molecule?
A: 184 % of control

Q: What about the T/C (dose: 39.0 mg/kg/injection, schedule: Q01DX001 (oral), vehicle: saline with Tween-80) of the same molecule?
A: 278 % of control

Q: `Clc1ccc(C(c2ccccc2Cl)C(Cl)Cl)cc1` (centres undefined) was tested. Which T/C [1] did it give?
A: 110 % of control

Q: What about the T/C [2] of the same molecule?
A: 98 % of control

Q: What about the T/C [3] of the same molecule?
A: 96 % of control

Q: And the T/C [4]?
A: 104 % of control

Q: What about the T/C [5] of the same molecule?
A: 96 % of control

Q: How did the T/C (dose: 3.12 mg/kg/injection, schedule: Q04DX003 (ip), vehicle: Klucel (hydroxypropylcellulose) (HPC)) turn out when `CCC[CH2][Hg][Cl]` was run?
A: 98 % of control

Q: What about the T/C (dose: 6.25 mg/kg/injection, schedule: Q04DX003 (ip), vehicle: Klucel (hydroxypropylcellulose) (HPC)) of the same molecule?
A: 93 % of control

Q: For `N=C(N)Sc1ccccn1`, which T/C (dose: 12.5 mg/kg/injection, schedule: Q04DX003 (ip), vehicle: saline) is on record?
A: 94 % of control

Q: And the T/C (dose: 25.0 mg/kg/injection, schedule: Q04DX003 (ip), vehicle: saline)?
A: 101 % of control

Q: What about the T/C (dose: 50.0 mg/kg/injection, schedule: Q04DX003 (ip), vehicle: saline) of the same molecule?
A: 91 % of control

Q: And the T/C (dose: 100.0 mg/kg/injection, schedule: Q04DX003 (ip), vehicle: saline)?
A: 91 % of control

Q: Which T/C (dose: 12.5 mg/kg/injection, schedule: Q04DX003 (ip), vehicle: other) does the source give for `CN(N=O)C(=O)N[C@@H](C=O)[C@@H](O)[C@H](O)[C@H](O)CO` here?
A: 113 % of control

Q: And the T/C (dose: 25.0 mg/kg/injection, schedule: Q04DX003 (ip), vehicle: other)?
A: 110 % of control

Q: What about the T/C (dose: 50.0 mg/kg/injection, schedule: Q04DX003 (ip), vehicle: other) of the same molecule?
A: 118 % of control

Q: What about the T/C (dose: 100.0 mg/kg/injection, schedule: Q04DX003 (ip), vehicle: other) of the same molecule?
A: 124 % of control

Q: And the T/C (dose: 200.0 mg/kg/injection, schedule: Q04DX003 (ip), vehicle: other)?
A: 123 % of control

Q: How did the T/C (dose: 12.5 mg/kg/injection, schedule: Q04DX003 (ip), vehicle: Klucel (hydroxypropylcellulose) (HPC)) turn out when `CN(Cc1cnc2nc(N)nc(N)c2n1)c1c(Cl)cc(C(=O)NC(CCC(=O)O)C(=O)O)cc1Cl` (centres undefined) was run?
A: 105 % of control

Q: What about the T/C (dose: 25.0 mg/kg/injection, schedule: Q04DX003 (ip), vehicle: Klucel (hydroxypropylcellulose) (HPC)) of the same molecule?
A: 102 % of control

Q: And the T/C (dose: 50.0 mg/kg/injection, schedule: Q04DX003 (ip), vehicle: Klucel (hydroxypropylcellulose) (HPC))?
A: 104 % of control

Q: What about the T/C (dose: 100.0 mg/kg/injection, schedule: Q04DX003 (ip), vehicle: Klucel (hydroxypropylcellulose) (HPC)) of the same molecule?
A: 104 % of control

Q: And the T/C (dose: 200.0 mg/kg/injection, schedule: Q04DX003 (ip), vehicle: Klucel (hydroxypropylcellulose) (HPC))?
A: 118 % of control

Q: `CN(C)CCCNc1ccc(NCCCN(C)C)c2c1C(=O)c1ccccc1C2=O` was tested. Which T/C (dose: 4.0 mg/kg/injection, schedule: Q01DX009 (ip), vehicle: saline) did it give?
A: 101 % of control

Q: What about the T/C (dose: 8.0 mg/kg/injection, schedule: Q01DX009 (ip), vehicle: saline) of the same molecule?
A: 106 % of control

Q: And the T/C (dose: 16.0 mg/kg/injection, schedule: Q01DX009 (ip), vehicle: saline)?
A: 100 % of control

Q: And the T/C (dose: 32.0 mg/kg/injection, schedule: Q01DX009 (ip), vehicle: saline)?
A: 97 % of control

Q: How did the T/C (dose: 25.0 mg/kg/injection, schedule: Q03DX002 (iv), vehicle: saline) turn out when `CCc1ncnc2cc(OCC3CO3)c(OC)cc12` (centres undefined) was run?
A: 90 % of control

Q: What about the T/C (dose: 40.0 mg/kg/injection, schedule: Q03DX002 (ip), vehicle: saline) of the same molecule?
A: 97 % of control

Q: What about the T/C (dose: 40.0 mg/kg/injection, schedule: Q03DX002 (sc), vehicle: saline) of the same molecule?
A: 86 % of control

Q: And the T/C (dose: 60.0 mg/kg/injection, schedule: Q03DX002 (ip), vehicle: saline)?
A: 114 % of control

Q: And the T/C (dose: 60.0 mg/kg/injection, schedule: Q03DX002 (iv), vehicle: saline)?
A: 95 % of control

Q: What about the T/C (dose: 60.0 mg/kg/injection, schedule: Q03DX002 (sc), vehicle: saline) of the same molecule?
A: 86 % of control

Q: For `OC(C1CO1)C(O)C1CO1` (centres undefined), which T/C (dose: 0.5 mg/kg/injection, schedule: Q04DX003 (ip), vehicle: saline) is on record?
A: 110 % of control

Q: What about the T/C (dose: 1.0 mg/kg/injection, schedule: Q04DX003 (ip), vehicle: saline) of the same molecule?
A: 109 % of control

Q: And the T/C (dose: 7.6 mg/kg/injection, schedule: Q07DX003 (iv), vehicle: saline)?
A: 165 % of control

Q: What about the T/C (dose: 8.0 mg/kg/injection, schedule: Q04DX003 (ip), vehicle: saline) of the same molecule?
A: 338 % of control

Q: What about the T/C (dose: 12.0 mg/kg/injection, schedule: Q07DX003 (iv), vehicle: saline) of the same molecule?
A: 193 % of control

Q: Which T/C (dose: 4.0 mg/kg/injection, schedule: Q04DX002 (ip), vehicle: Klucel (hydroxypropylcellulose) (HPC)) does the source give for `COc1ccc2c(c1O)-c1cccc3c1[C@@H](C2)N(CCCl)CC3` here?
A: 107 % of control

Q: What about the T/C (dose: 8.0 mg/kg/injection, schedule: Q04DX002 (ip), vehicle: Klucel (hydroxypropylcellulose) (HPC)) of the same molecule?
A: 119 % of control

Q: And the T/C (dose: 16.0 mg/kg/injection, schedule: Q04DX002 (ip), vehicle: Klucel (hydroxypropylcellulose) (HPC))?
A: 108 % of control

Q: What about the T/C (dose: 32.0 mg/kg/injection, schedule: Q04DX002 (ip), vehicle: Klucel (hydroxypropylcellulose) (HPC)) of the same molecule?
A: 124 % of control

Q: `COc1cccc2c1C(=O)c1c(O)c3c(c(O)c1C2=O)C[C@@](O)(/C(CO)=N/NC(=O)c1ccc(Cl)c(Cl)c1)C[C@@H]3OC1CC(N)C(O)C(C)O1` (some centres undefined) was tested. Which T/C (dose: 16.0 mg/kg/injection, schedule: Q07DX002 (iv), vehicle: saline) did it give?
A: 92 % of control

Q: And the T/C (dose: 24.0 mg/kg/injection, schedule: Q07DX002 (iv), vehicle: saline)?
A: 109 % of control

Q: What about the T/C (dose: 36.0 mg/kg/injection, schedule: Q07DX002 (iv), vehicle: saline) of the same molecule?
A: 103 % of control

Q: With `Nc1ccc(Cl)cc1N` as the molecule, how does the T/C (dose: 12.5 mg/kg/injection, schedule: Q04DX003 (ip), vehicle: saline + Tween-80 + alcohol) read?
A: 96 % of control

Q: What about the T/C (dose: 12.5 mg/kg/injection, schedule: Q04DX003 (ip), vehicle: saline with Tween-80) of the same molecule?
A: 100 % of control

Q: And the T/C (dose: 25.0 mg/kg/injection, schedule: Q04DX003 (ip), vehicle: saline + Tween-80 + alcohol)?
A: 98 % of control

Q: And the T/C [1]?
A: 100 % of control

Q: What about the T/C (dose: 50.0 mg/kg/injection, schedule: Q04DX003 (ip), vehicle: saline + Tween-80 + alcohol) of the same molecule?
A: 102 % of control

Q: What about the T/C [2] of the same molecule?
A: 100 % of control

Q: What about the T/C (dose: 100.0 mg/kg/injection, schedule: Q04DX003 (ip), vehicle: saline + Tween-80 + alcohol) of the same molecule?
A: 104 % of control

Q: And the T/C [3]?
A: 102 % of control

Q: And the T/C (dose: 200.0 mg/kg/injection, schedule: Q04DX003 (ip), vehicle: saline + Tween-80 + alcohol)?
A: 107 % of control

Q: And the T/C [4]?
A: 106 % of control

Q: And the T/C [5]?
A: 109 % of control

From PubChem BioAssay AID210 (DTP/NCI, 2004)
